Test results from PMC9516332 (Frontiers in Oncology, 2022).
Read-outs that look alike come from different tables or passages of the source.

Assays:
AP-1060 (ETV6-NTRK3) = assay: Cell viability assay; settings: read-out: IC50 in cell proliferation assay
134 cancer cell lines [1] = test system: 134 cancer cell lines
134 cancer cell lines [2] = assay: Cell viability assay (ATPlite, 72 hours), IC50 on cancer cell line panel

C[C@H](Nc1ncnc2nc[nH]c12)c1cc2cccc(Cl)c2c(=O)n1-c1ccccc1 [duvelisib]
IC50 (AP-1060 (ETV6-NTRK3)): 11.3 µM
IC50 (134 cancer cell lines [1]): 4.24 µM
IC50 (134 cancer cell lines [2]; HEC-6, read-out: IC50 in cell proliferation assay, HEC-6 cell line (EGFR p.A289V)): > 31.6 µM
IC50 (134 cancer cell lines [2]; Homo sapiens, 769-P, read-out: IC50 in cell proliferation assay, cell line 769-P): 31.1 µM
IC50 (134 cancer cell lines [2]; Homo sapiens, 786-0, read-out: IC50 in cell proliferation assay, cell line 786-O): 14.2 µM
IC50 (134 cancer cell lines [2]; Homo sapiens, A 172, read-out: IC50 in cell proliferation assay, cell line A-172): > 31.6 µM
IC50 (134 cancer cell lines [2]; Homo sapiens, A204, read-out: IC50 in cell proliferation assay, cell line A-204): 1.19 µM
IC50 (134 cancer cell lines [2]; Homo sapiens, A498, read-out: IC50 in cell proliferation assay, cell line A-498): 3.39 µM
IC50 (134 cancer cell lines [2]; Homo sapiens, A549, read-out: IC50 in cell proliferation assay, cell line A-549): 23.9 µM
IC50 (134 cancer cell lines [2]; Homo sapiens, A704, read-out: IC50 in cell proliferation assay, cell line A-704): > 31.6 µM
IC50 (134 cancer cell lines [2]; Homo sapiens, A-375, read-out: IC50 in cell proliferation assay, cell line A-375 (BRAF p.V600E)): 23.4 µM
IC50 (134 cancer cell lines [2]; Homo sapiens, A-427, read-out: IC50 in cell proliferation assay, cell line A-427): 14.9 µM
IC50 (134 cancer cell lines [2]; Homo sapiens, ACHN, read-out: IC50 in cell proliferation assay, cell line ACHN): 7.17 µM
IC50 (134 cancer cell lines [2]; Homo sapiens, AN3-CA, read-out: IC50 in cell proliferation assay, cell line AN3-CA (FGFR2 p.N549K)): 4.2 µM
IC50 (134 cancer cell lines [2]; Homo sapiens, ASPC1, read-out: IC50 in cell proliferation assay, cell line AsPC-1): > 31.6 µM
IC50 (134 cancer cell lines [2]; Homo sapiens, AU565, read-out: IC50 in cell proliferation assay, cell line AU565 (ERBB2 amplification)): 7.67 µM
IC50 (134 cancer cell lines [2]; Homo sapiens, BT-20, read-out: IC50 in cell proliferation assay, cell line BT-20): 30 µM
IC50 (134 cancer cell lines [2]; Homo sapiens, BT-474, read-out: IC50 in cell proliferation assay, cell line BT-474 (ERBB2 amplification)): 9.09 µM
IC50 (134 cancer cell lines [2]; Homo sapiens, BT-549, read-out: IC50 in cell proliferation assay, cell line BT-549): 0.348 µM
IC50 (134 cancer cell lines [2]; Homo sapiens, BXPC-3, read-out: IC50 in cell proliferation assay, cell line BxPC-3): 16.6 µM
IC50 (134 cancer cell lines [2]; Homo sapiens, C-33-A, read-out: IC50 in cell proliferation assay, cell line C-33 A): 9.87 µM
IC50 (134 cancer cell lines [2]; Homo sapiens, CAL-27, read-out: IC50 in cell proliferation assay, cell line CAL-27): 8.89 µM
IC50 (134 cancer cell lines [2]; Homo sapiens, CCF-STTG1, read-out: IC50 in cell proliferation assay, cell line CCF-STTG1): > 31.6 µM
IC50 (134 cancer cell lines [2]; Homo sapiens, CCRF-CEM, read-out: IC50 in cell proliferation assay, cell line CCRF-CEM): 0.916 µM
IC50 (134 cancer cell lines [2]; Homo sapiens, COLO 205, read-out: IC50 in cell proliferation assay, cell line COLO 205 (BRAF p.V600E)): 20.5 µM
IC50 (134 cancer cell lines [2]; Homo sapiens, COLO-829, read-out: IC50 in cell proliferation assay, cell line COLO 829 (BRAF p.V600E)): > 31.6 µM
IC50 (134 cancer cell lines [2]; Homo sapiens, DLD-1, read-out: IC50 in cell proliferation assay, cell line DLD-1): 18.5 µM
IC50 (134 cancer cell lines [2]; Homo sapiens, DU-4475, read-out: IC50 in cell proliferation assay, cell line DU4475 (BRAF p.V600E)): > 31.6 µM
IC50 (134 cancer cell lines [2]; Homo sapiens, Daoy, read-out: IC50 in cell proliferation assay, cell line Daoy): 12.1 µM
IC50 (134 cancer cell lines [2]; Homo sapiens, DoTc2-4510, read-out: IC50 in cell proliferation assay, cell line DoTc2 4510): 8.98 µM
IC50 (134 cancer cell lines [2]; Homo sapiens, EOL1, read-out: IC50 in cell proliferation assay, cell line EoL-1 (FIP1L1-PDGFRA)): 0.033 µM
IC50 (134 cancer cell lines [2]; Homo sapiens, FaDu, read-out: IC50 in cell proliferation assay, cell line FaDu): 18.7 µM
IC50 (134 cancer cell lines [2]; Homo sapiens, G-361, read-out: IC50 in cell proliferation assay, cell line G-361 (BRAF p.V600E)): 22.1 µM
IC50 (134 cancer cell lines [2]; Homo sapiens, HCC827, read-out: IC50 in cell proliferation assay, cell line HCC827 (EGFR exon19del)): 2.18 µM
IC50 (134 cancer cell lines [2]; Homo sapiens, HCC4006, read-out: IC50 in cell proliferation assay, cell line HCC4006 (EGFR exon19del)): 26 µM
IC50 (134 cancer cell lines [2]; Homo sapiens, HCT-15, read-out: IC50 in cell proliferation assay, cell line HCT 15): > 31.6 µM
IC50 (134 cancer cell lines [2]; Homo sapiens, HCT-116, read-out: IC50 in cell proliferation assay, cell line HCT 116): 27.6 µM
IC50 (134 cancer cell lines [2]; Homo sapiens, HEC-1, read-out: IC50 in cell proliferation assay, HEC-1 cell line): 11.2 µM
IC50 (134 cancer cell lines [2]; Homo sapiens, HEC-1B, read-out: IC50 in cell proliferation assay, HEC-1-B cell line (EGFR p.A864V)): 4.51 µM
IC50 (134 cancer cell lines [2]; Homo sapiens, HL-60, read-out: IC50 in cell proliferation assay, HL-60 cell line): 4.97 µM
IC50 (134 cancer cell lines [2]; Homo sapiens, HT, read-out: IC50 in cell proliferation assay, HT cell line): 4.63 µM
IC50 (134 cancer cell lines [2]; Homo sapiens, HT-1080, read-out: IC50 in cell proliferation assay, HT-1080 cell line): 3.97 µM
IC50 (134 cancer cell lines [2]; Homo sapiens, Hs746T, read-out: IC50 in cell proliferation assay, Hs 746.T cell line (MET exon14skip + amplification)): 4.43 µM
IC50 (134 cancer cell lines [2]; Homo sapiens, Hs-578T, read-out: IC50 in cell proliferation assay, Hs 578T cell line): 2.62 µM
IC50 (134 cancer cell lines [2]; Homo sapiens, HuTu80, read-out: IC50 in cell proliferation assay, HuTu 80 cell line): 15 µM
IC50 (134 cancer cell lines [2]; Homo sapiens, J82, read-out: IC50 in cell proliferation assay, J82 cell line): 23.8 µM
IC50 (134 cancer cell lines [2]; Homo sapiens, Jurkat E6.1, read-out: IC50 in cell proliferation assay, Jurkat E6.1 cell line): 6.94 µM
IC50 (134 cancer cell lines [2]; Homo sapiens, K562, read-out: IC50 in cell proliferation assay, K-562 cell line): 12.3 µM
IC50 (134 cancer cell lines [2]; Homo sapiens, KATO III, read-out: IC50 in cell proliferation assay, KATO III cell line (FGFR2 amplification)): 23.1 µM
IC50 (134 cancer cell lines [2]; Homo sapiens, KG-1, read-out: IC50 in cell proliferation assay, KG-1 cell line (FGFR1OP2-FGFR1)): > 31.6 µM
IC50 (134 cancer cell lines [2]; Homo sapiens, KLE, read-out: IC50 in cell proliferation assay, KLE cell line): 4.37 µM
IC50 (134 cancer cell lines [2]; Homo sapiens, KMS-11, read-out: IC50 in cell proliferation assay, KMS-11 cell line (FGFR3 p.Y373C)): 11.4 µM
IC50 (134 cancer cell lines [2]; Homo sapiens, KU812, read-out: IC50 in cell proliferation assay, Ku812 cell line): 12.8 µM
IC50 (134 cancer cell lines [2]; Homo sapiens, Kasumi 1, read-out: IC50 in cell proliferation assay, Kasumi-1 cell line (KIT p.N822K)): 5.79 µM
IC50 (134 cancer cell lines [2]; Homo sapiens, LC-2-ad, read-out: IC50 in cell proliferation assay, LC-2/ad cell line (CCDC6-RET)): 0.095 µM
IC50 (134 cancer cell lines [2]; Homo sapiens, LNCaP-Clone-FGC, read-out: IC50 in cell proliferation assay, LNCaP clone FGC cell line): 0.119 µM
IC50 (134 cancer cell lines [2]; Homo sapiens, LS174T, read-out: IC50 in cell proliferation assay, LS174T cell line): 31.2 µM
IC50 (134 cancer cell lines [2]; Homo sapiens, LS-411N, read-out: IC50 in cell proliferation assay, LS411N cell line (BRAF p.V600E)): 26.3 µM
IC50 (134 cancer cell lines [2]; Homo sapiens, LoVo, read-out: IC50 in cell proliferation assay, LoVo cell line): 9.26 µM
IC50 (134 cancer cell lines [2]; Homo sapiens, MCF7, read-out: IC50 in cell proliferation assay, MCF-7 cell line): 11.8 µM
IC50 (134 cancer cell lines [2]; Homo sapiens, MDA-MB-231, read-out: IC50 in cell proliferation assay, MDA-MB-231 cell line): > 31.6 µM
IC50 (134 cancer cell lines [2]; Homo sapiens, MDA-MB-453, read-out: IC50 in cell proliferation assay, MDA-MB-453 cell line): > 31.6 µM
IC50 (134 cancer cell lines [2]; Homo sapiens, MDA-MB-468, read-out: IC50 in cell proliferation assay, MDA-MB-468 cell line): 1.3 µM
IC50 (134 cancer cell lines [2]; Homo sapiens, MG-63, read-out: IC50 in cell proliferation assay, MG-63 cell line): 7.8 µM
IC50 (134 cancer cell lines [2]; Homo sapiens, MIA PaCa-2, read-out: IC50 in cell proliferation assay, MIA PaCa-2 cell line): 12.9 µM
IC50 (134 cancer cell lines [2]; Homo sapiens, MKN-45, read-out: IC50 in cell proliferation assay, MKN45 cell line (MET amplification)): 2.36 µM
IC50 (134 cancer cell lines [2]; Homo sapiens, MOLM-13, read-out: IC50 in cell proliferation assay, MOLM-13 cell line (FLT3 ITD)): 0.004 µM
